Data on eight molecules can be found in patent US10202351B2, “Pyrazolyl derivatives as pest control agents” (BAYER ANIMAL HEALTH GMBH, priority 2015, dated 2019).

Common to all, as to type: in vivo
One experiment deals with Boophilus microplus. The experiment can be described thus: Boophilus microplus injection test. Conditions: after 7 days, laying of fertile eggs. Here is the method: Solvent: dimethyl sulfoxide […] The animals are transferred into dishes and kept in a climate-controlled room. Efficacy is assessed after 7 days by laying of fertile eggs. Eggs which are not visibly fertile are stored in a climate-controlled cabinet until the larvae hatch after about 42 days.

A further experiment relates to Lucilia cuprina. The experiment can be described thus: Lucilia cuprina test. Particulars: L1 larvae, kill after 2 days. Here is the method: (§1) Solvent: dimethyl sulfoxide
(§2) To produce a suitable preparation of active compound, 10 mg of active compound are mixed with 0.5 ml of dimethyl sulfoxide, and the concentrate is diluted with water to the desired concentration.
About 20 L1 larvae of the Australian sheep blowfly (Lucilia cuprina) are transferred into a test vessel containing minced horsemeat and the active compound formulation of the desired concentration.
After 2 days, the kill in % is determined. 100% means that all the larvae have been killed; 0% means that no larvae have been killed.

For experiment [1], the system named is Ctenocephalides felis. The experiment can be described thus: Ctenocephalides felis oral test. Conditions: kill after 2 days. The text has this:
Solvent: dimethyl sulfoxide […] Dilution with citrated cattle blood gives the desired concentration. About 20 unfed adult cat fleas (Ctenocephalides felis) are placed into a chamber which is closed at the top and bottom with gauze. A metal cylinder whose bottom end is closed with parafilm is placed onto the chamber. The cylinder contains the blood/active ingredient formulation, which can be imbibed by the fleas through the parafilm membrane.

Another experiment has as its system Tetranychus urticae. Kind of experiment: Tetranychus urticae spray test, OP-resistant. Conditions: application rate 100 g/ha, all stages on bean leaf discs, after 6 days. Here is the method:
Solvent: 78.0 parts by weight of acetone • • 1.5 parts by weight of dimethylformamide Emulsifier: alkylaryl polyglycol ether […] To produce further test concentrations, the formulation is diluted with emulsifier-containing water. Discs of bean leaves (Phaseolus vulgaris) infested with all stages of the greenhouse red spider mite (Tetranychus urticae) are sprayed with an active ingredient formulation of the desired concentration.

The test system of a further experiment is Phaedon cochleariae. The experiment can be described thus: Phaedon cochleariae spray test. Particulars: application rate 100 g/ha, larvae on Chinese cabbage leaf discs, after 7 days. Here is the method:
Solvent: 78.0 parts by weight of acetone • • 1.5 parts by weight of dimethylformamide Emulsifier: alkylaryl polyglycol ether […] To produce further test concentrations, the formulation is diluted with emulsifier-containing water. Discs of Chinese cabbage leaves (Brassica pekinensis) are sprayed with an active ingredient formulation of the desired concentration and, after drying, populated with larvae of the mustard beetle (Phaedon cochleariae).

Experiment [2] deals with Ctenocephalides felis. Kind of experiment: Ctenocephalides felis in vitro contact test with adult cat fleas. Conditions: application rate 5 μg/cm^2 (500 g/ha), after 48 h, dead or moribund fleas. Here is the method: After the solvent has evaporated off, the tubes are populated with 5-10 adult cat fleas (Ctenocephalides felis), sealed with a perforated plastic lid and incubated in a horizontal position at room temperature and ambient humidity. After 48 h, efficacy is determined. To this end, the tubes are stood upright and the fleas are knocked to the base of the tube. Fleas which remain motionless at the base or move in an uncoordinated manner are considered to be dead or moribund.

The subject of the next experiment is Spodoptera frugiperda. Kind of experiment: Spodoptera frugiperda spray test. Conditions: application rate 100 g/ha, caterpillars on maize leaf discs, after 7 days. Here is the method: Solvent: 78.0 parts by weight of acetone • • 1.5 parts by weight of dimethylformamide Emulsifier: alkylaryl polyglycol ether […] To produce further test concentrations, the formulation is diluted with emulsifier-containing water. Leaf discs of maize (Zea mays) are sprayed with an active compound formulation of the desired concentration and, after drying, populated with caterpillars of the armyworm (Spodoptera frugiperda).

The next experiment has as its system Musca domestica. Kind of experiment: Musca domestica test. Particulars: adult houseflies, kill after 2 days. Here is the method: as §1, §2
Vessels containing a sponge treated with sugar solution and the active ingredient formulation of the desired concentration are populated with 10 adult houseflies (Musca domestica)).
After 2 days, the kill in % is determined. 100% means that all of the flies have been killed; 0% means that none of the flies have been killed.

Setting [3] is: application rate 100 ppm in citrated cattle blood.

For the molecule `Cc1cnccc1C(=O)Nc1cc(-c2cnn(-c3c(C)cc(C(F)(C(F)(F)F)C(F)(F)F)cc3C(F)(F)F)c2)ccc1F` [Example 54], the efficacy in the experiment on Boophilus microplus (application rate 20 μg/animal), in the experiment on Lucilia cuprina (application rate 100 ppm), with Ctenocephalides felis [1] (setting [3]), in the experiment on Tetranychus urticae, in the experiment with Phaedon cochleariae and in the experiment with Ctenocephalides felis [2] was 100% in each case. In addition, the efficacy with Spodoptera frugiperda and in the experiment on Musca domestica (application rate 100 ppm) was 100% throughout.
`Cc1ncc(-c2cnn(-c3c(Cl)cc(C(F)(C(F)(F)F)C(F)(F)F)cc3Cl)c2)cc1NC(=O)c1ccc(F)cc1` [Example 17]: the efficacy in the experiment with Boophilus microplus (application rate 4 μg/animal), in the experiment with Lucilia cuprina (application rate 20 ppm), with Ctenocephalides felis [1] (application rate 20 ppm in citrated cattle blood), with Tetranychus urticae, in the experiment with Phaedon cochleariae and in the experiment on Ctenocephalides felis [2] was 100% throughout. The efficacy in the experiment on Spodoptera frugiperda and in the experiment on Musca domestica (application rate 20 ppm) was 100% in each case.
`Cc1cc(C(F)(C(F)(F)F)C(F)(F)F)cc(C(F)(F)F)c1-n1cc(-c2ccc(F)c(NC(=O)c3ccnc(F)c3)c2)cn1` [Example 51]: the efficacy with Boophilus microplus (application rate 20 μg/animal) amounted to 100%; in the experiment on Lucilia cuprina (application rate 100 ppm) it was 100%; with Ctenocephalides felis [1] (setting [3]), 100%; with Tetranychus urticae, 90%; in the experiment on Phaedon cochleariae, 100%; in the experiment with Ctenocephalides felis [2], 100%. The efficacy in the experiment on Spodoptera frugiperda and with Musca domestica (application rate 100 ppm) was 100% throughout.
As to `O=C(Nc1cc(-c2cnn(-c3c(Cl)cc(C(F)(C(F)(F)F)C(F)(F)F)cc3Cl)c2)cnc1F)c1ccncc1` [Example 19], the efficacy in the experiment on Boophilus microplus (application rate 20 μg/animal), with Lucilia cuprina (application rate 100 ppm), with Ctenocephalides felis [1] (setting [3]), in the experiment on Tetranychus urticae, in the experiment on Phaedon cochleariae and with Ctenocephalides felis [2] was 100% throughout. For the same molecule, the efficacy in the experiment with Spodoptera frugiperda and with Musca domestica (application rate 100 ppm) was 100% throughout.
For the molecule `Cc1cc(C(F)(C(F)(F)F)C(F)(F)F)cc(C(F)(F)F)c1-n1cc(-c2cccc(NC(=O)c3ccncc3)c2F)cn1` [Example 68], the efficacy in the experiment on Boophilus microplus (application rate 20 μg/animal), in the experiment on Lucilia cuprina (application rate 100 ppm), in the experiment on Ctenocephalides felis [1] (setting [3]), in the experiment on Tetranychus urticae, in the experiment on Phaedon cochleariae and in the experiment on Ctenocephalides felis [2] was 100% throughout. Also, the efficacy with Spodoptera frugiperda and with Musca domestica (application rate 100 ppm) was 100% each time.
Consider `Cc1cc(C(F)(C(F)(F)F)C(F)(F)F)cc(C(F)(F)F)c1-n1cc(-c2ccc(F)c(NC(=O)C3(C)CC3)c2)cn1` [Example 30], for which the efficacy with Boophilus microplus (application rate 20 μg/animal), with Lucilia cuprina (application rate 100 ppm), with Ctenocephalides felis [1] (setting [3]), with Phaedon cochleariae, in the experiment with Ctenocephalides felis [2] and with Spodoptera frugiperda was 100% in each case. This molecule had an efficacy with Musca domestica (application rate 100 ppm) of 100%.
`COc1cccc(C(=O)Nc2cc(-c3cnn(-c4c(C)cc(C(F)(C(F)(F)F)C(F)(F)F)cc4C(F)(F)F)c3)ccc2F)c1` [Example 32]: the efficacy with Boophilus microplus (application rate 20 μg/animal), in the experiment with Lucilia cuprina (application rate 100 ppm), in the experiment on Ctenocephalides felis [1] (setting [3]), with Phaedon cochleariae, with Ctenocephalides felis [2] and with Spodoptera frugiperda was 100% each time. The molecule also registered an efficacy in the experiment on Musca domestica (application rate 100 ppm) of 90%.
As for `Cc1cc(C(F)(C(F)(F)F)C(F)(F)F)cc(C)c1-n1cc(-c2ccc(N(C)C)c(NC(=O)c3ccncc3)c2)cn1` [Example 20], the efficacy in the experiment with Boophilus microplus (application rate 20 μg/animal), in the experiment on Ctenocephalides felis [1] (setting [3]), in the experiment on Tetranychus urticae, with Phaedon cochleariae, with Ctenocephalides felis [2] and in the experiment on Spodoptera frugiperda was 100% throughout. For the same molecule, the efficacy in the experiment with Musca domestica (application rate 100 ppm) is 90%.
